According to patent US7354711B2, “Methods for inhibiting immunostimulatory DNA associated responses” (University of Iowa Research Foundation, priority 1997, dated 2008):

What was measured:
WEHI 231 cells [1] = experiment: CpG-ODN-induced IL-6 synthesis (ELISA); assay type: cell-based, mouse; conditions: 10 nM
Procedure: The assay of IL6 was generally carried out as follows. […] After 24 hours, the IL-6 content of the supernatant was assayed by enzyme-linked immunoassay using two monoclonal antibodies in a sandwich technique as described by the manufacturer, using standards supplied (PharMingen, San Diego Calif.).

7TD1 cells = experiment: Inhibition of 7TD1 cell growth; assay type: cell-based, mouse
Procedure: One particularly useful cell line for the assay of immunostimulatory DNA action is the mouse-mouse hybridoma plasma cell line 7TD1(ATTC #CRL 1851), which requires exoqenous IL-6 for growth, and has been used to characterize and assay IL-6 (Papadopolous et al., 1995. J. Clin. Lab. Anal. 9:234-7; Krakauer, 1993. J. Immunoassay 14:267-77).
The 7TD1 cells were grown in RPMI 1640 supplemented with 10% fetal bovine serum (heat inactivated at 65° C., 1 hour), 0.3 grams/Liter L-glutamine, 50 milligrams/Liter gentamycin, 0.05 mM 2-mercaptoethanol, and 10 units per milliliter murine IL-6 in a 37° C. humid atmosphere with 5% CO2. Viable 7TD1 cells were counted in a hemocytometer chamber in duplicate after dilution with 0.4% trypan blue.
The 7TD1 cells were incubated for five days and were washed twice with medium to remove IL-6, and resuspended at 2×10^4 per milliliter in medium. Cell counts were performed and the percent inhibition of growth was computed. The term “anti” refers to 40 nanograms/milliliter neutralizing antibody to IL-6.

human mononuclear cells = experiment: ODN 1760-induced [3H] thymidine incorporation in human mononuclear cells; assay type: cell-based; conditions: unfractionated human peripheral blood cells, four days
Procedure: [^3H] thymidine incorporation (18 hour pulse) was then measured. […] Thymidine incorporation for untreated samples was less than 0.05%. Samples from three donors were averaged, and error bars indicate 1 standard deviation.

[2] = test system: human peripheral blood mononuclear cells (PBMC); experiment: ODN 1760-induced IL-6 production in human peripheral blood mononuclear cells; assay type: cell-based; conditions: 24 hours
Procedure: Referring to the experiments summarized in FIG. 9, human peripheral blood mononuclear cells (PBMC) from three donors were incubated with or without ODN 1760 and the indicated concentration of test compound. After 24 hours, the concentration of IL-6 was determined in the supernatant. The figure indicates the percentage of IL-6 in reference to ODN-treated cells. The IL-6 amounts for control sample per donor were as follows: donor 1, 203 picograms/milliliter; donor 2, 71.5 picograms/milliliter; donor 3, 465 picograms/milliliter. IL-6 measured from untreated cells was 0-21 picograms/milliliter. Results from the three donors were averaged, and error bars indicate 1 standard deviation.

WEHI 231 cells [3] = experiment: Protection by ODN against thapsigargin-induced DNA fragmentation; assay type: cell-based, mouse; conditions: 0.1 μM quinacrine, 10 nM thapsigargin, 24 hours
Procedure: The DNA fragmentation assay was carried out generally as follows. WEHI 231 cells were incubated with 0.5 μCi/milliliter [^3H] thymidine for 3 hours, centrifuged, resuspended in 2 milliliters of fresh medium at 2×10^5/milliliter, and incubated in a 24-well plate with additions as indicated. After incubation for 16-18 hours, 1 milliliter aliquots of the cells were centrifuged, washed with 200 μliters PBS. This suspension was drawn into a pipette tip containing 25 μliters of 2% SDS, and the mixture was immediately ejected into a well of a 0.8% agarose TBE gel containing 0.5 μliter/milliliter ethidium bromide. The gel was electrophoresed for 1 hour at 65 volts, destained in water, and photographed under ultraviolet light. The lanes of the gel were cut into three approximately equal portions. The first portion included the gel well and the first 2 millimeters of the running lane. The second and third pieces were the remainder of the lane. The gel portions were melted in glass scintillation vials and mixed with a 20 milliliter of scintillation cocktail and counted in a scintillation counter. The amount of fragmented DNA (DNA in the second and third gel pieces) was expressed as a percentage of the total counts recovered in the lane. […]

WEHI 231 cells [4] = conditions: 0.1 μM quinacrine
Procedure: Unless otherwise noted, cell culture conditions were as follows. WEHI 231 cells (ATTC #CRL 1702) were grown in log phase in a medium of RPMI 1640 supplemented with 10% fetal bovine serum (heat inactivated at 65° C. for one hour), 0.3 grams/Liter of L-glutamine, 50 milligrams/Liter gentamycin, and 0.05 mM 2-mercaptoethanol in a 37° C. humid atmosphere with 5% CO2. WEHI 231 cells were diluted with 0.4% trypan blue in phosphate-buffered saline (PBS) and live cells were counted in a hemocytometer chamber. Cells were resuspended in medium at 2×10^5/milliliter in 24-well tissue culture plates (Costar, Cambridge Mass.). Appropriate additions were made, and the cells were incubated and counted daily. WEHI 231 cells were diluted with fresh medium if the concentration exceeded 7×10^5/milliliter.
Referring to the experiments summarized in FIG. 2a, WEHI 231 cells (2×10^5 per milliliter) were incubated with or without 6 μgrams/milliliter ODN 1760, 10 μgrams/milliliter α-sIgM, or 0.1 μM quinacrine as indicated. Live cells were counted daily. The cells were diluted in medium if their concentration exceeded 7×10^5 per milliliter.

[5] = 6 μg/mL ODN 1760, 0.1 μM compound
[6] = 6 μg/mL ODN 1760, 0.3 μM compound
[7] = 6 μg/mL ODN 1760, 1 μM compound
[8] = 10 μg/mL IL-6 + 0.1 μM compound
[9] = 10 μg/mL IL-6 + 0.3 μM compound

In the case of `CCN(CC)CCCC(C)Nc1c2ccc(Cl)cc2nc2ccc(OC)cc12` (centres unmarked) [quinacrine], the “Reversal of ODN 1760 effect on IL-6 elaboration” value (WEHI 231 cells [1]) is reported as “completely reversed”, the “7TD1 cells/μL” value (7TD1 cells; [5]) is reported as 20 cells/μL and the “% Growth Inhibition” value (7TD1 cells; [5]) is reported as 95%. The “7TD1 cells/μL” value (7TD1 cells; [6]) was 20 cells/μL, the “% Growth Inhibition” value (7TD1 cells; [6]) was 95% and the “7TD1 cells/μL” value (7TD1 cells; [7]) was 15 cells/μL. The “% Growth Inhibition” value (7TD1 cells; [7]) was 96.3%, the “7TD1 cells/μL” value (7TD1 cells; [8]) was 707 cells/μL and the “% Growth Inhibition” value (7TD1 cells; [8]) was 20.2%. For the same molecule, the “7TD1 cells/μL” value (7TD1 cells; [9]) was 595 cells/μL, the “% Growth Inhibition” value (7TD1 cells; [9]) was 32.9% and the “7TD1 cells/μL” value (7TD1 cells; 10 μg/mL IL-6 + 1 μM compound) was 587 cells/μL. For the same molecule, the “% Growth Inhibition” value (7TD1 cells; 10 μg/mL IL-6 + 1 μM compound) was 33.8%, the “Effect on IL-6-induced growth” value (7TD1 cells; 7TD1 cells, IL-6) was “little effect” and the “Effect on growth stimulation by CpG-ODN” value (7TD1 cells; 7TD1 cells, ODN 1760) was “blocked”. The “Effect on ODN 1760-induced thymidine incorporation (FIG. 8)” value (human mononuclear cells) was “inhibited”, the “Effect on ODN 1760-induced IL-6 production (FIG. 9)” value [2] was “inhibited” and the “Block of ODN 1760 protection against thapsigargin-induced DNA fragmentation (FIG. 7)” value (WEHI 231 cells [3]) was “blocked the protective effect”. For the same molecule, the “Influence of compound alone on cell growth and on cell death induced by α-sIgM” value (WEHI 231 cells [4]) was “influenced neither cell growth nor cell death” and the “Reversal of ODN 1760 protection, cell count over a period of three days (FIG. 2a)” value (WEHI 231 cells [4]; 6 μg/mL ODN 1760, 10 μg/mL α-sIgM) was “reversed this protection”.
